IC50 data for 15 compounds are collected here from ChEMBL document CHEMBL5506027, “Discovery of a Novel and Potent Cyclin-Dependent Kinase 8/19 (CDK8/19) Inhibitor for the Treatment of Cancer” (J Med Chem, 2024).

Each structure is given as a SMILES string.

Broadly, the IC50 is the concentration needed to halve the response being measured. A higher IC50 goes with weaker potency.

Assay [1] concerns the target CDK8/Cyclin C (Homo sapiens, UniProt P49336). Briefly: Displacement of tracer 236 from CDK8/cyclin C (unknown origin) preincubated for 15 mins followed by tracer addition and measured after 60 mins by FRET based lanthascreen assay. The format is protein-complex assay.
Assay [2] deals with MV4-11. Briefly: Antiproliferative activity against human MV4-11 cells incubated for 5 days by CellTiter-Glo luminescent cell viability assay. Conditions: MV4-11, 120 h. Format: functional, cell-based. A general note: Cellular ATP, detected with luciferase, serves as a proxy for viable cell number.

Sequence of CDK8/Cyclin C (P49336 whole entry): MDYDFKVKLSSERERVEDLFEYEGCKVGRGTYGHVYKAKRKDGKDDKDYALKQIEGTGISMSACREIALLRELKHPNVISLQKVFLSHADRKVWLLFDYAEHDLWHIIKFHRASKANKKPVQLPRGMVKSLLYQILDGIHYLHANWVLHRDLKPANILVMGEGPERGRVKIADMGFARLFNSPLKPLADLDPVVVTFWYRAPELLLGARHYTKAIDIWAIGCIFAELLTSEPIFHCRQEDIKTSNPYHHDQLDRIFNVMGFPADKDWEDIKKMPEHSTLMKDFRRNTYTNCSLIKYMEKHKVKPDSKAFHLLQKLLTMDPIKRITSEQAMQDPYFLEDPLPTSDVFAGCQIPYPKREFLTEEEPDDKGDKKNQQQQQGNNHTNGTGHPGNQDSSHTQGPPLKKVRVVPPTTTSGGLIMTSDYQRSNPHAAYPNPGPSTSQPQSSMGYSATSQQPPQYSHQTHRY
Sequence of CDK8/Cyclin C (P24863 whole entry, further chain): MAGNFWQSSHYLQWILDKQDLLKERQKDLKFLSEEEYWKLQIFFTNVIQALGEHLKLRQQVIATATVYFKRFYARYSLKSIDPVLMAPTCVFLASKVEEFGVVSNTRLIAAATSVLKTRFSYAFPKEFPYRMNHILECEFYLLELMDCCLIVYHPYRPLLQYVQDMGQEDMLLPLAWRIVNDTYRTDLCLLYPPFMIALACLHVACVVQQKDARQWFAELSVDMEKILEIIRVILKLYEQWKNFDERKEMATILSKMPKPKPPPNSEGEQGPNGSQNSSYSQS

Take `Cc1c(Br)c(Br)c(C)c2c1nc(N1CCNCC1)n2C1CCCC1`: the figures for the IC50 in assay [1] and in assay [2] were 0.139 µM and over 1 µM, respectively.

As for `CN1CCN(c2nc3c(C(F)F)c(Br)c(Br)cc3n2C2CCOCC2)CC1`, the IC50 in assay [1] turned out to be 0.0064 µM; in assay [2] it was 0.152 µM.

As to `Cc1c(Br)c(Br)cc2c1nc(N1CCNCC1)n2[C@H]1CC[C@H](O)CC1`, the IC50 in assay [1] is 0.0112 µM; in assay [2], 0.146 µM.

Consider `OCCN1CCN(c2nc3c(C(F)F)c(Br)c(Br)cc3n2C2CCOCC2)CC1`, for which the values for the IC50 in assay [1] and in assay [2] were 0.0065 µM and 0.0327 µM, respectively.

As for `Cc1c(Br)c(Br)cc2c1nc(N1CCNCC1)n2C1CCOCC1`, the 50% inhibitory concentration (IC50) was determined as 0.0079 µM in assay [1] and 0.0394 µM in assay [2].

On to `N[C@@H]1CCN(c2nc3c(C(F)F)c(Br)c(Br)cc3n2C2CCOCC2)C1`, for which the IC50 amounted to 0.02 µM in assay [1] and 0.0338 µM in assay [2].

`Cc1c(Br)c(Br)cc2c1nc(N1CCNCC1)n2C1CCCC1`: the IC50 in assay [1] amounted to 0.0363 µM; in assay [2], 0.421 µM.

On to `Brc1cc2c(nc(N3CCNCC3)n2C2CCOCC2)c(C2CC2)c1Br`, for which the values for the IC50 in assay [1] and in assay [2] were 0.0486 µM and over 1 µM, respectively.

For the compound `Brc1cc2nc(N3CCNCC3)n(C3CCOCC3)c2cc1Br`, the IC50 in assay [1] stood at 0.166 µM; in assay [2], 0.526 µM.

With `C#Cc1c(Br)c(Br)cc2c1nc(N1CCNCC1)n2C1CCOCC1`, the IC50 in assay [1] was 0.0108 µM; in assay [2] it was 0.0725 µM.

For `Cc1c(Br)c(Br)cc2c1nc(N1CCNCC1)n2C1CCCOC1` (stereo not given), the IC50 in assay [1] amounted to 0.0167 µM; in assay [2], 0.478 µM.

For `Cc1c(Br)c(Br)cc2c1nc(N1CCNCC1)n2C1CC2(COC2)C1`, the IC50 in assay [1] was over 1 µM; in assay [2] it was 0.795 µM.

As to `Clc1c(Br)c(Br)cc2c1nc(N1CCNCC1)n2C1CCOCC1`, the IC50 is 0.091 µM in assay [1] and over 1 µM in assay [2].

In the case of `NC1CCN(c2nc3c(C(F)F)c(Br)c(Br)cc3n2C2CCOCC2)CC1`, the results for the IC50 in assay [1] and in assay [2] were 0.035 µM and 0.188 µM, respectively.

On to `C=Cc1c(Br)c(Br)cc2c1nc(N1CCNCC1)n2C1CCOCC1`, for which the IC50 in assay [1] was 0.0336 µM; in assay [2] it was 0.36 µM.
